The text below walks through data of patent US4822791A, “Pharmaceutical compositions of-2,2-1,1-[bis-2,2'-(3,1-benzoxazin-4-one)9 ethylenes” (priority 1984, dated 1989).

Data set [1] has as its target T1, hyaluronidase (Bos taurus, UniProt Q2YDK3).
T1 sequence (Q2YDK3 36-553): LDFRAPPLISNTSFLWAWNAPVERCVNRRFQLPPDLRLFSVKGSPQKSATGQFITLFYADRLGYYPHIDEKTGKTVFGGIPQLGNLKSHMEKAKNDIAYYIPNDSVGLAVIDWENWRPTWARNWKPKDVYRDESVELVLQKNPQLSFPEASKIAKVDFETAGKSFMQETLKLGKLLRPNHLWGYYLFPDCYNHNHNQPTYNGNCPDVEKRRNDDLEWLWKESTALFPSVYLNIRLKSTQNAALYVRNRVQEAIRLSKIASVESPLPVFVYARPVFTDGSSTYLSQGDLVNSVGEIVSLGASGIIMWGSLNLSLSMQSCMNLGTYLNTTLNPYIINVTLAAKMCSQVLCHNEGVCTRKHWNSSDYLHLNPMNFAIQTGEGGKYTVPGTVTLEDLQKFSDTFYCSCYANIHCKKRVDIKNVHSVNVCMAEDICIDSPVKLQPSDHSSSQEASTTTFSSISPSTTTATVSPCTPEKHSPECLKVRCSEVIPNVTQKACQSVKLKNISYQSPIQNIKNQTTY
In words: Anti-hyaluronidase activity (modified Morgan-Elson method). The class given is biochemical. The settings on record: hyaluronidase 340NF unit/ml; activating agent Compound 48/80 or CaCl2; read-out: IC50.
Procedure: A buffer soluticn of hyaluronidase (0.1 ml) was taken in a test tube and 0.2 ml each of the buffer solution of various compounds in various concentrations was added, and the mixture was preincubated at 37° C. for 20 minutes. Then, an activating agent (Compound 48/80 or CaCl2) (0.2 ml) was added to make the total amount 0.5 ml, which was incubated at 37° C. for 20 minutes. Then, potassium hyaluronate buffer solution (0.5 ml) was added, and the mixture was incubated at 37° C. for 40 minutes. After cooling, the mixture was treated with aqueous solution of 0.4N NaOH (0.2 ml) and neutralized to stop the reaction. The resulting product was subjecred to measurement of OD585 by the modified Morgan-Elson Method. […] (The final ccncentration of hyaluronidase was 340NF unit/ml.) [formula]

Data set [2] deals with mast cell in abdominal cavity. In words: Release of histamine by antigen DNP-Ascaris, mast cell in abdominal cavity (Test Example 12). The class given is cell-based, rat. Particulars: Rattus norvegicus, Mast cell; 10^-3 M; read-out: Effect on release of histamine by antigen DNP-Ascaris, Mast cell in abdominal cavity (control 100). The procedure: (§1) Collection of mast cells in abdominal cavity and thoracic cavity and sensitizing of cells were conducted in similar manners to those in Test Example 10, respectively.
(§2) (1) Preparation of DNP-Ascaris antiserum was conducted in manner similar to that in Test Example 6.
(§3) This is conducted in amanner similar to that in Test Example 10.
(§4) This is conducted in a manner similar to that in Test Example 10.

Data set [3] relates to Mast cell in thoracic cavity. Briefly: Release of histamine by antigen DNP-Ascaris, mast cell in thoracic cavity (Test Example 12). The class given is cell-based. The settings on record: Rattus norvegicus, 10^-3 M, read-out: Effect on release of histamine by antigen DNP-Ascaris, Mast cell in thoracic cavity (control 100). How it is done:
as §1, §2, §3, §4

Data set [4] has as its system passive cutaneous anaphylaxis (PCA). In words: Anti-passive cutaneous anaphylaxis activity (PCA) in rats (Test Example 9). Particulars: Rattus norvegicus, po, 10 animals. The class given is in vivo. The procedure: Wistar strain rats were sensitized with ovalbumin using aluminium hydroxide gel and Bordetella Pertussis vaccine as adjuvants. Dilutions of antiserum (16-fold and 32-fold) obtained by collecting blood samples 14 days later were administered subcutaneously in the dorsal skin of the rats of the same strain at the rate of 0.1 ml per spot, and the rats were grown for 48 hours. One hour after peroral administration of the sample solution, a mixture of antigen ovalbumin and Evans-blue dye was administered to the tail venous of the animal according to the ordinary procedure. Thirty minutes later, the animals were sacrificed by exsanguination, and the areas of blue spots (long diameter×short diameter) eliciting on the portion of the antiserum injection at the dorsal skin were measured to obtain the rate of inhibition based on the average value shown by the control animals.
This test was conducted in a manner similar to that in Test Example 2, except that the dilutions of antiserum were 12- and 24-folds.

The test system of data set [5] is mast cell in abdominal cavity. Briefly: Histamine release by antigen DNP-Ascaris, mast cell in abdominal cavity (Test Example 10). The class given is cell-based, rat. Particulars: 10^-3 M; for activity at 1000 µM: Rattus norvegicus, Mast cell, 20 min, read-out: released amount of histamin, Mast cell in abdominal cavity (control shown as 100). The procedure:
(§5) Examination was made cn the activity of inhibition of histamine release from mast cell by antigen-antibody reaction.
(§6) Preparation of DNP-Ascaris antiserum was conducted in a manner similar to that in Test Example 6.
(§7) Heparin-containing PBS was injected into the abdominal cavity of rat which was sacrificed by bleeding, after which the abdomen was well massaged, and then peritoneal exudate was sampled. The same liquid was also injected into the thoracic cavity, and after shaking the breast for several minutes, the thoracic cavity liquid was sampled, which was purified by washing several times by centrifugation. The number of the mast cells contained in this liquid was measured and adjusted to a designated concentration. (Mast cells, 8.0×10^4 cells/ml).
To the cell suspension (4 ml, 9×10^5 cells/ml), anti-DNP-Ascaris rat serum (PCA titer, 32) (4 ml) was added, and the mixture was incubated in the presence of heparin at 37° C. for 2.5 hours. To the solution, 70 microgramms/ml phosphatidylserin PBS solution (0.5 ml) was added and the mixture was incubated at 37° C. for 12 minutes, after which 140 microgramms/ml antigen DNP-Ascaris PBS solution (0.5 ml) was added and the mixture was incubated further for 20 minutes.
After completion of the reaction, the reaction liquid was centrifuged (500 G, 10 min.) to obtain supernatant solution, and histamin in the supernatant solution was subjected to fluorometry by orthophthalal aldehyde method. The released amount of histamin in the control was shown as 100.

For data set [6], the system named is Mast cell in thoracic cavity. In words: Histamine release by antigen DNP-Ascaris, mast cell in thoracic cavity (Test Example 10). The class given is cell-based. Particulars: Rattus norvegicus, 20 min, 10^-3 M, read-out: released amount of histamin, Mast cell in thoracic cavity (control shown as 100). How it is done:
as §5, §6, §7
To the cell suspension (4 ml, 9×10^5 cells/ml), anti-DNP-Ascaris rat serum (PCA titer, 32) (4 ml) was added, and the mixture was incubated in the presence of heparin at 37° C. for 2.5 hours. To the solution, 70 microgramms/ml phosphatidylserin PBS solution (0.5 ml) was added and the mixture was incubated at 37° C. for 12 minutes, after which 140 microgramms/ml antigen DNP-Ascaris PBS solution (0.5 ml) was added and the mixture was incubated further for 20 minutes. […]

Data set [7] in a line: Acute toxicity LD50 in ICR mice (Test Example 11). Particulars: mouse, in vivo, one week, Provit method. The procedure:
As test animals, ICR-strain mice (male) were used. According to the conventional procedure, suspension or solution of test sample was administered to the animals. From the number of the died animals until one week after the administration, LD50 values were obtained by Provit method.

Data set [8] deals with passive cutaneous anaphylaxis (PCA). Briefly: Anti-passive cutaneous anaphylaxis (PCA) activity in rats (Test Example 2). The class given is in vivo, Wistar strain rats. The settings on record: for inhibition in vivo at 100 mg/kg: Rattus norvegicus, 100 mg/kg PO, N 10. In outline:
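Antiserum from Wistar rats sensitized with ovalbumin (alum plus B. pertussis adjuvant) was diluted 16- or 32-fold and injected into dorsal skin of naive rats, which were held 48 h. Compound was given orally 1 h before i.v. ovalbumin plus Evans blue.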

In data set [9] the test system is anaphylaxis reaction to inhalated antigen. In words: Antigen inhalation test on passive sensitized guinea pig (experimental asthma model). The format is in vivo. Particulars: 5 mg/kg iv.
Procedure: The test compound and Tranilast were respectively suspended at the time of use in 5% gum arabic solution containing 0.1% Tween 80 at the rate of 40 mg/ml, and were perorally administered at the rate of 0.5 ml per 100 g body weight of the animal.
DSCG was dissolved at the time of use in physiological saline solultion for injection at the rate of 5.0 mg/ml, and was intravenously injected at the rate of 0.1 ml per 100 g body weight of the animal.
Anti-ovalbumin rabbit serum diluted with physiological saline solution for injection so as tc contain anti-ovalbumin rabbit antibody at the rate of 0.187 mg N/ml was intravenously administered to guinea pig at the rate of 0.1 ml per 100 g of body weight and it was passively sensitized.
Twenty-four hours later, the suspension of the compound prepared in (1) above was perorally or intravenously administered to the animal. The animal was put in the inhalation chamber one hour after the administration in case of the peroral administration and five minutes after the administration in case of the intravenous administration, and 2% physiological saline solution of antigen ovalbumin was inhaled by spraying. Over 10 minutes' period from the time immediately after the forced inhalation, the time until its fall attributed to anaphylaxis reaction was recorded, and the numbers of alive and dead animals after lapse of 10 minutes were also counted.
Data set [10] deals with mast cell in abdominal cavity. Briefly: Release of histamine by dextran (T-500), mast cell in abdominal cavity (Test Example 12). The class given is cell-based, rat. Particulars: Rattus norvegicus, Mast cell, 0.25 h, read-out: Effect on release of histamine by dextran (T-500), Mast cell in abdominal cavity (control 100). How it is done:
as §1
(§8) The sample solution was treated with 105 microgramms/ml phosphatidylserin PBS solution (0.5 ml) and incubated at 37° C. for 30 minutes, followed by addition of 25 mg/ml dextran (T-500) PBS solution (0.5 ml) and further incubation for 15 minutes.
as §4

Data set [11] concerns Mast cell in thoracic cavity. Briefly: Release of histamine by dextran (T-500), mast cell in thoracic cavity (Test Example 12). The format is cell-based, rat. Particulars: Rattus norvegicus, Mast cell, 0.25 h; 10^-3 M; read-out: Effect on release of histamine by dextran (T-500), Mast cell in thoracic cavity (control 100). The procedure:
as §1, §8, §4

For data set [12], the system named is hyaluronidase. The settings on record: known from the literature; cited from earlier work.
The subject of data set [13] is experimental ulcer model (Shay). In words: Anti-ulcer activity in experimental ulcer model (Shay). The format is in vivo, Wistar strain male rats. How it is done: Using 5 eight-week old Wistar strain male rats of 1 group, the rats were previously fasted for […]. The compound of an amount proportionate to the body weight based on the body weight after fasting was administered intraduodenally or intraperitoneally.
Each test compound was evenly suspended or dissolved in an aqueous solution of 0.5% CMC ccntaining 0.1% Tween 80, and administered at the rate of 0.5 ml per 100 g of body weight of the animal. To the controls, only the solvent was administered.
Test was carried out in accordance with Shay's method. After 48 hours' fasting, 5 animals per group were subjected to laparotomy under ether anesthesia, the tract between pylorus of stomach and duodenum was ligated, and the solution of the compound was administered intraduodenally (id) or intraperitoneally (ip), followed by suturing the laparotomy part. Eight hours after administration of the compound liquid, each animal was sacrificed by ether anesthesia and stomach was removed. Then, evaluation on the ulcer condition on the inner surface of stomach, and determination of the amount of gastric juice, of acidity by alkali titration, and of pepsin titer based on substrate of hemoglovin were made on the stored gastric juice. With regard to the acidity, gastric juice amount, and pepsin titer, the results were shown in inhibition rate (%) based on the average value of the control groups.

Data set [14] can be described thus: Acute toxicity LD50 in mice (Test Example 8). Particulars: mouse, in vivo, one week, Probit method. How it is done:
(§9) ddy-Strain mice (male) and Wistar strain rats were used to obtain LD50 values.
(§10) According to the ordinary procedure, suspension or solution of test sample was administered to the animals. From the number of the died animals until one week after the administration, LD50 values were obtained by Probit method.

Data set [15] can be described thus: Acute toxicity LD50 in rats (Test Example 8). Particulars: rat, in vivo, po; one week; Probit method; read-out: LD50 value (mg/kg body weight) Rat p.o. How it is done:
as §9, §10

Setting [16] is: read-out: Inhibition, Anti-serum Dilution: × 12.
Setting [17] is: read-out: Inhibition, Anti-serum Dilution: × 24.

“And” between values parts separate entries of the source, which are not always exact repeats. Identical values can stand only once. Like-named read-outs stand apart in the source and are kept apart here. Some results are limits rather than exact numbers.

The IC50 is the concentration at which inhibition is half-maximal. Take `COc1ccc(C=C(C(=O)Nc2cc(Cl)ccc2C(=O)O)C(=O)Nc2cc(Cl)ccc2C(=O)O)cc1OC` [Compound 21]: the 50% inhibitory concentration (IC50) in [1] was 15 µM. In addition, the activity at 1000 µM in data set [2] is 48.3%; in [3], 73%.

Take `COC(=O)c1ccccc1NC(=O)C(=Cc1ccccc1)C(=O)Nc1ccccc1C(=O)OC` [Compound 51]: the inhibition in vivo at 10 mg/kg in data set [4] (setting [16]) was 28.1%; in data set [4] (setting [17]) it was 30.3%. Moreover, the figures for the inhibition in vivo at 50 mg/kg in data set [4] (setting [16]) and in data set [4] (setting [17]) were 34.2% and 37.5%, respectively. The “inhibition of release of histamine from mast cells in abdominal and thoracic cavity (in words)” value in data set [5] is recorded as “action of inhibiting release of histamine”. Moreover, the figures for the activity at 1000 µM in data set [5] and in data set [6] were 50.4% and 75.1%, respectively. Besides, the LD50 at 168 h in data set [7] (po, peroral, read-out: LD50 Value (mg/kg of body weight) Peroral administration) is at least 8000 mg/kg; in data set [7] (intravenous, read-out: LD50 Value (mg/kg of body weight) Intravenous administration), 238 mg/kg.

For the molecule `O=C(O)c1cc(=O)c2c(OCC(O)COc3cccc4oc(C(=O)O)cc(=O)c34)cccc2o1` [DSCG, disodium cromoglicate, reference compound], the inhibition in vivo at 100 mg/kg in data set [8] (read-out: Average Inhibition Rate (%) Antiserum Dilution: × 16) was determined as 0.1%; in [8] (read-out: Average Inhibition Rate (%) Antiserum Dilution: × 32), 0.3%; in [4] (setting [16]), 0%; in [4] (setting [17]), 0%. In data set [8] (peroral), the “anti-PCA activity by peroral administration (in words)” value is “no activity”. The “Extended rate (%)” value in data set [9] was found to be 23.9%. For the same molecule, in data set [9] (N 5), the “Average time for falling Mean ± S.E.” value worked out at 192.5 ± 20.3 s. The “Required time (sec.) for falling and Number of death (#), single animals” value in data set [9] (N 5, observed 10 minutes, # shows death) was 142 s and 188 s and 199 s and 241 s and > 600 s. For the same molecule, the activity at 1000 µM in [5] is 76.8%; in data set [6], 105%; in [10] (10^-3 M) it was 60%; in data set [11] it was 42.2%; in [2] it was 76.8%; in [3] it was 105%. For the same molecule, the activity at 100 µM in [10] (10^-4 M) came to 52.9%. In data set [12], the “effect on hyaluronidase activity (in words)” value is “inhibit hyaluronidase activity”.

As to `COc1ccc(C=C(C(=O)Nc2ccccc2C(=O)O)C(=O)Nc2ccccc2C(=O)O)cc1OC` [Compound 20, 2,2'-[[2-(3,4-dimethoxy)phenylmethylene-1,3-dioxo-1,3-propanediyl]diimino]bisbenzoic acid], the half-inhibitory concentration (IC50) in [1] is 40 µM. Further, the “Inhibition % Gastric Acidity” value in data set [13] (id 100 mg/kg) is reported as 64.5%; in data set [13] (id 200 mg/kg), 99.5%; in data set [13] (ip 10 mg/kg) it was 52.3%; in [13] (ip 50 mg/kg), 88.0%. The “Inhibition % secretion amount of gastric juice” value in data set [13] (id 100 mg/kg) worked out at 28.1%; in data set [13] (id 200 mg/kg), 59.0%; in data set [13] (ip 10 mg/kg) it was 26.3%; in data set [13] (ip 50 mg/kg), 70.9%. In addition, the “Inhibition % total pepsin titer” value in [13] (id 100 mg/kg) came out at 42.5%; in data set [13] (id 200 mg/kg), 69.3%; in data set [13] (ip 10 mg/kg), 31.4%; in data set [13] (ip 50 mg/kg), 60.7%. The LD50 at 168 h in data set [14] (iv, read-out: LD50 value (mg/kg body weight) Mouse i.v.) was 225 mg/kg; in data set [14] (po, read-out: LD50 value (mg/kg body weight) Mouse p.o.), above 10000 mg/kg; in data set [15], above 10000 mg/kg.
